Patent US20220167645A1, “METHODS OF IMPROVING FISH FEED CONVERSION RATE AND SURVIVAL” (AQUINOVO LTD., priority 2019, published 2022)
Numbered stars: 1 amine (or outer) side, 2 acyl side, 3 side chain; on linkers, the order of the positions; unused ones are H or OH. Square brackets hold non-standard residues; d marks the D form. Suc = O=C(CCC(=O)[*:2])[*:1]; NMeV = CN[C@H](C(=O)O)C(C)C; βAla = NCCC(=O)O

Columns and labels:
Type in all cases: in vivo
Tilapia fish [1] = test: Experiment #2: tilapia fed AN6-coated feed 60-150 dph (growth, biomass, FCR, intestine weight)
Method: MeM (powder, manufactured by Bern Aqua), Nanolis P1, P2 (pellet sizes of 0.8-1 mm, 1-1.5 mm, respectively, manufactured by Ocialis) and Tilaphi 1, 2 & 3 (pellet sizes of 1-1.5 mm, 2 mm, 3-5.5 mm, respectively, manufactured by Ocialis) were used as basic regular feed. The basic feed was coated according to the following general procedure: 9 ml or 3 ml of Tris-HCl solution (50 mM, pH=8.8) were diluted to 60 ml with distilled H2O. For AN6-containing feed preparation, desired amounts of AN6 peptide (a TK antagonist having the sequence Succ-Asp-Ser-D-Trp—N(Me)Val-βAla-Leu-Met-NH2, SEQ ID NO. 6) were dissolved in the Tris-HCl solution. Then, each of the various solutions was mixed with 3 Kg of basic feed pellets using an electric mixer. The peptide-feed mixtures where then dried either in oven at 40° C. for 24 hours or in drying drum for few hours to form coated pellets. The total amount of each feed was 3 Kg.
Tilapia fish (n=1440) have been raised from day 60 to day 119 post-hatch in indoor tanks and then transferred to outdoor tanks (120-150 dph) followed by cages in ponds (150-243 dph). The fish were fed to apparent satiation 2-4 times a day, for 90 days (60-150 dph) either with regular feed (Feed A, Group C, n=60 in 8 repeats); feed coated with AN6 peptide solution in ratio of 5 mg AN6/Kg feed (5 ppm, Feed B, Group D, n=60 in 8 repeats); or feed coated with AN6 peptide solution in ratio of 10 mg AN6/Kg feed (Feed C, Group E, n=60 in 8 repeats).
During the experimental period, the average fish weight was measured, and the daily growth rate was calculated by dividing the average weight gained in each measuring period by the number of days since the last measurement. […] However, from age 200 dph, a considerable jump in fish performance and FCR was observed, reaching a maximal level at the last measurement point (243 dph, +8.4% average weight, +18% weight gain, +10% total biomass; FIG. 1, experiment #2 and FIG. 3B). The effect on growth was evident even when considering differences in initial body weight (FIG. 2B).
In order to determine the efficiency of feed conversion into fish substance in experiments (#1, #2, #3), FCR values which reflect the amount of feed needed to grow a kilogram fish, were calculated for each period and for the entire fish growth period. In order to determine the amount of consumed feed, the amount of feed provided was measured daily for each tank and the leftovers were collected, weighted and subtracted from the total amount of feed. Dead fish were removed every day before each feeding and then counted and weighed for accurate calculation of feed intake and FCR. It is to be noted that high mortality can still influence FCR values since feed eaten by fish that have later died cannot be subtracted from the total feed consumed and on the other hand periodic total fish weight gained is underestimated (dead fish are not included). Three FCR values were calculated according to the following formulas:
At the end of the experiment described in example 3 (experiment #2), 6 fish from each cage/tank (3 females and 3 males, n=24 per treatment group) were sacrificed and whole intestine was removed and weighted.

Tilapia fish [2] = test: Experiment #1: tilapia fed AN6-coated feed in two phases (growth, biomass, mortality, FCR); conditions: second phase, adult fish 195-263 dph; 50 days of 30 mg AN6/Kg feed; compared to control
Tilapia fish [3] = test: Experiment #2: tilapia fed AN6-coated feed 60-150 dph (growth, biomass, FCR, intestine weight); conditions: 5 mgAN6/Kg feed from 60 dph for 150 days
[4] = 10 mg/Kg feed, Group E, last measurement point 243 dph, vs control

Succ-Asp-Ser- D-Trp -N(Me)Val-βAla-Leu-Met-NH2 (Suc-DS[dW][NMeV][βAla]LM-NH2; SMILES CSCC[C@H](NC(=O)[C@H](CC(C)C)NC(=O)CCNC(=O)[C@H](C(C)C)N(C)C(=O)[C@@H](Cc1c[nH]c2ccccc12)NC(=O)[C@H](CO)NC(=O)[C@H](CC(=O)O)NC(=O)CCC(=O)O)C(N)=O) [AN6]
increase in fish average weight and growth rate (Tilapia fish [1]; 10 mg/Kg feed, Group E (fed 60-150 dph), age 95 to 165 dph, vs control): ~+3%
average weight (Tilapia fish [1]; [4]): +8.4%
total biomass (Tilapia fish [1]; [4]): +10%
weight gain (Tilapia fish [1]; [4]): +18%
number of fish in the upper 6.5th decile (Tilapia fish [1]; 10 mgAN6/Kg feed, Group E (control 2.8%)): 7.2%
number of fish in the lower 2th decile (Tilapia fish [1]; 10 mgAN6/Kg feed, Group E (control 18.4%)): 13.2%
weight gain of male and female populations analysed separately (Tilapia fish [1]; FIG. 4, 5 and 10 mg/Kg for 90 days (60-150 dph)): better performance than control
ratio between intestine weight and fish weight (ISI) (Tilapia fish [1]; male fish treated with 10 mg AN6/Kg feed, end of experiment #2, vs control, FIG. 6): +21%
increase in average fish weight (Tilapia fish [2]): +6.84%
increase in average weight gained (Tilapia fish [2]): +13%
FCR (Tilapia fish [3]): improved FCR significantly
growth (Tilapia fish [3]): not sufficient to improved growth
